Calls of active or inactive are those of the source. How the calls were made is not given here.
Tested on: CCRIS mutagenicity, Ames/micronucleus/aberration tests
Assay: CCRIS mutagenicity studies

Measured: mutagenic call

Cc1cc(-c2cc(C)c(N)c(C)c2)cc(C)c1N
inactive: Test System: AMES SALMONELLA TYPHIMURIUM, Strain/Indicator: TA97, Metabolic Activation: HAMSTER, LIVER, S-9, AROCLOR 1254 (10%), Method: PREINCUBATION inactive; negative | Test System: AMES SALMONELLA TYPHIMURIUM, Strain/Indicator: TA97, Metabolic Activation: HAMSTER, LIVER, S-9, AROCLOR 1254 (30%), Method: PREINCUBATION inactive; negative | Test System: AMES SALMONELLA TYPHIMURIUM, Strain/Indicator: TA97, Metabolic Activation: NONE, Method: PREINCUBATION inactive; negative | Test System: AMES SALMONELLA TYPHIMURIUM, Strain/Indicator: TA97, Metabolic Activation: RAT, LIVER, S-9, AROCLOR 1254 (10%), Method: PREINCUBATION inactive; negative | Test System: AMES SALMONELLA TYPHIMURIUM, Strain/Indicator: TA97, Metabolic Activation: RAT, LIVER, S-9, AROCLOR 1254 (30%), Method: PREINCUBATION inactive; negative | Test System: AMES SALMONELLA TYPHIMURIUM, Strain/Indicator: TA98, Metabolic Activation: HAMSTER, LIVER, S-9, AROCLOR 1254 (10%), Method: PREINCUBATION inactive; negative | Test System: AMES SALMONELLA TYPHIMURIUM, Strain/Indicator: TA98, Metabolic Activation: HAMSTER, LIVER, S-9, AROCLOR 1254 (30%), Method: PREINCUBATION inactive; negative | Test System: AMES SALMONELLA TYPHIMURIUM, Strain/Indicator: TA98, Metabolic Activation: NONE, Method: PREINCUBATION inactive; negative | Test System: AMES SALMONELLA TYPHIMURIUM, Strain/Indicator: TA98, Metabolic Activation: RAT LIVER S-9, AROCLOR 1254, Method: PREINCUBATION inactive; negative | Test System: AMES SALMONELLA TYPHIMURIUM, Strain/Indicator: TA98, Metabolic Activation: RAT, LIVER, S-9, AROCLOR 1254 (10%), Method: PREINCUBATION inactive; negative | Test System: AMES SALMONELLA TYPHIMURIUM, Strain/Indicator: TA98, Metabolic Activation: RAT, LIVER, S-9, AROCLOR 1254 (30%), Method: PREINCUBATION inactive; negative | Test System: AMES SALMONELLA TYPHIMURIUM, Strain/Indicator: TA100, Metabolic Activation: HAMSTER, LIVER, S-9, AROCLOR 1254 (10%), Method: PREINCUBATION inactive; negative | Test System: AMES SALMONELLA TYPHIMURIUM, Strain/Indicator: TA100, Metabolic Activation: HAMSTER, LIVER, S-9, AROCLOR 1254 (30%), Method: PREINCUBATION inactive; negative | Test System: AMES SALMONELLA TYPHIMURIUM, Strain/Indicator: TA100, Metabolic Activation: NONE, Method: PREINCUBATION inactive; negative | Test System: AMES SALMONELLA TYPHIMURIUM, Strain/Indicator: TA100, Metabolic Activation: RAT LIVER S-9, AROCLOR 1254, Method: PREINCUBATION inactive; negative | Test System: AMES SALMONELLA TYPHIMURIUM, Strain/Indicator: TA100, Metabolic Activation: RAT, LIVER, S-9, AROCLOR 1254 (10%), Method: PREINCUBATION inactive; negative | Test System: AMES SALMONELLA TYPHIMURIUM, Strain/Indicator: TA100, Metabolic Activation: RAT, LIVER, S-9, AROCLOR 1254 (30%), Method: PREINCUBATION inactive; negative | Test System: AMES SALMONELLA TYPHIMURIUM, Strain/Indicator: TA1535, Metabolic Activation: HAMSTER, LIVER, S-9, AROCLOR 1254 (10%), Method: PREINCUBATION inactive; negative | Test System: AMES SALMONELLA TYPHIMURIUM, Strain/Indicator: TA1535, Metabolic Activation: HAMSTER, LIVER, S-9, AROCLOR 1254 (30%), Method: PREINCUBATION inactive; negative | Test System: AMES SALMONELLA TYPHIMURIUM, Strain/Indicator: TA1535, Metabolic Activation: NONE, Method: PREINCUBATION inactive; negative | Test System: AMES SALMONELLA TYPHIMURIUM, Strain/Indicator: TA1535, Metabolic Activation: RAT, LIVER, S-9, AROCLOR 1254 (10%), Method: PREINCUBATION inactive; negative | Test System: AMES SALMONELLA TYPHIMURIUM, Strain/Indicator: TA1535, Metabolic Activation: RAT, LIVER, S-9, AROCLOR 1254 (30%), Method: PREINCUBATION inactive; negative | Test System: Ames Salmonella typhimurium, Strain/Indicator: TA102, Metabolic Activation: None, Method: Preincubation inactive; negative | Test System: Ames Salmonella typhimurium, Strain/Indicator: TA102, Metabolic Activation: Rat, liver, S-9, Aroclor 1254, Method: Preincubation inactive; negative | Test System: MOUSE LYMPHOMA, Strain/Indicator: L5178Y (TK+/TK-), Metabolic Activation: RAT, LIVER, S-9, AROCLOR 1254, Method: SUSPENSION/PLATE inactive; negative | Test System: MOUSE LYMPHOMA, Strain/Indicator: L5178Y (TK+/TK-), Metabolic Activation: RAT, LIVER, S-9, Method: SUSPENSION/PLATE inactive; negative

Reference: PubChem BioAssay AID1259407 (Chemical Carcinogenesis Research Information System (CCRIS), 2018)
